Data reported in paper PMC12172326 (Journal of Biomedical Science, 2025).
Where two headings read alike, the source gives them in different places.

Assays:
[1] = ex vivo stability in mouse plasma; format: in vitro ADME; settings: 100 μg/ml, room temperature, 0-180 min
Procedure: An ex vivo evaluation of drug stability was conducted in mouse and human plasma samples (WuXi AppTec, Shanghai, China). […] Samples were, thereafter, incubated at room temperature for 0, 15, 30, 60, 120, and 180 min before immediate drug extraction. […] Extraction was performed by adding ethyl acetate containing the internal standard (donepezil—known to undergo first-pass hepatic metabolism) to the spiked sample (100 μL), vortexed for 1 min, and centrifuged at 13,000 rpm, 4 °C for 10 min. The supernatant was used for LC–MS/MS analysis.
LC–MS/MS analysis was performed with a Vanquish Flex UHPLC (Thermo Scientific) and a Orbitrap Exploris 240 mass spectrometer (Thermo Scientific). Samples were separated on a C18 UHPLC column (100 mm × 2.1 mm, 3 μm; Thermo Scientific). The mobile phase A for LC separation was 0.1% formic acid and the mobile phase B was 0.1% formic acid in methanol. The chromatography gradient was designed for a linear increase from 5% B in 1 min, 5% B to 95% B in 8 min, 95% B in 3 min, and 5% B in 3 min. The flow rate was maintained at 0.3 mL/min. Mass spectra were acquired using the data-dependent Top 4 MS2 (ddMS2) method with a mass scan (100–1000 m/z) and 120,000 MS resolution.

[2] = mouse pharmacokinetics, plasma and brain, I.P.; format: in vivo; settings: for Kp / Cmax / Tmax / AUC(0-inf) / AUC(0-t): male, C57/BL6 J, ip; for Kp: brain/plasma, from AUCinfinity values
Procedure: Mice were euthanized from 30 min to 18 h after dosing. Blood samples were collected into heparinized tubes, centrifuged (10,000g × 2 min at 4 °C), and plasma collected and immediately stored at − 80 °C. The brain was rapidly excised on wet ice; a sample of cerebral hemisphere was then removed and immediately frozen to − 80 °C.

[3] = LPS-induced inflammation in RAW 264.7 cells (viability, nitrite, TNF-α); format: cell-based, mouse; settings: mouse, RAW 264.7 cells, RAW 264.7, 0.6 to 60 μM, LPS 20 ng/mL, MTS, read-out: cellular viability
Procedure: (§1) RAW 264.7 cell culture: RAW 264.7 cells were obtained from ATCC (Manassas, VA, USA) and grown in Dulbecco’s modified Eagle’s (DMEM), high glucose, GlutaMAX™ media supplemented with 10% FBS (ThermoFisher Scientific, Asheville, NC, USA). Cells were maintained at 37 °C and 5% CO2, were propagated as described by ATCC guidelines, and were cultured as previously communicated. […] One hour later, cells were challenged with lipopolysaccharide (LPS) (20 ng/ml, E. Coli O55:B5, Sigma, St Louis, MO, USA; Cat # L4005). This LPS concentration was selected from pilot studies to provide a submaximal inflammatory insult. Twenty-four hours later, culture media was collected to quantify cell viability (CellTiter 96® Aqueous One Solution Cell Proliferation Assay kit (MTS); Promega, Madison, WI, USA, Cat # G3580), secreted TNF-α protein (ELISA MAX™ Deluxe Set Mouse TNF-α, BioLegend, CA, USA; Cat # 430915) and nitrite (Griess Reagent System, Promega, Madison, WI, USA; Cat # G2930).

RAW 264.7 cells = test: as above; format: cell-based, mouse; settings: RAW 264.7, LPS 20 ng/mL, 24 h, p < 0.05
Procedure: as §1

IMG cells = test: LPS-induced inflammation in IMG microglial cells (viability, nitrite, TNF-α); format: cell-based, mouse; settings: 24 h
Procedure: (§2) IMG cell culture: Mouse immortalized microglial ‘IMG’ cells (Sigma-Aldrich; St. Louis, MO, USA; Cat # SCC-134, RRID:CVCL HC49) were cultured in High Glucose DMEM (Sigma Cat. No. D6546) with 10% heat-inactivated fetal bovine serum (Gibco™ Cat # 10082147), 1 × L-Glutamine (Sigma Cat # TMS-002-C) and 100 U/mL penicillin/streptomycin (Gibco™ Cat # 15140148). IMG cell subculturing was performed according to the product datasheet. In brief, cells were detached from culture plates with Accutase® (Sigma, Cat # A6964), collected, and centrifuged, with the cell pellet subsequently resuspended in media. The cells were then plated for experiments at specified densities and used for a maximum of 10 passages.
(§3) For cytokine/nitrite assessment studies, cells were grown in 24-well (40 K cells/well) tissue culture-treated plates in 500 μl of media. […] This LPS concentration induced a submaximal inflammatory response in IMG pilot studies. Following a 24 h incubation, conditioned media was collected and replaced with 500 μl fresh media to allow assessment of cell viability, TNF-α (ELISA MAX™ Deluxe Set Mouse TNF-α, BioLegend, CA, USA) and nitrite levels (Griess Reagent System, Promega, Madison, WI, USA), according to manufacturer’s instructions.

[4] = as above; format: cell-based, mouse; settings: mouse, IMG immortalized microglial cells, IMG, 0.6 to 60 μM, LPS 10 ng/mL, MTS, read-out: cellular viability
Procedure: as §2, §3

[5] = 100 μg/ml; data derive from ref 64; cited from earlier work

With `Nc1cccc2c1C(=S)N(C1CCC(=O)NC1=O)C2=O` (stereo not shown) [3-MP, 3-monothiopomalidomide] the “ex vivo stability in mouse plasma” value [1] was “stable”, the AUCInf ([2]; brain, 2.65 mg/kg I.P.) was 676.54 ng·h/g and the AUCLast ([2]; brain, 2.65 mg/kg I.P.) was 550.20 ng·h/g. For the same compound, the AUCInf ([2]; brain, 26.5 mg/kg I.P.) was 9052.48 ng·h/g, the AUCLast ([2]; brain, 26.5 mg/kg I.P.) was 8968.50 ng·h/g and the Kp ([2]; 2.65 mg/kg, 2.65 mg/kg I.P., read-out: Brain/plasma ratio) was 0.47. The Kp ([2]; 2.65 mg/kg, across the two doses 26.47 and 2.65 mg/kg I.P., read-out: brain/plasma drug concentration ratio) was 0.44 to 0.47, the Kp ([2]; 26.5 mg/kg, 26.5 mg/kg I.P., read-out: Brain/plasma ratio) was 0.44 and the Cmax ([2]; brain, 2.65 mg/kg I.P.) was 454 ng/g. The Tmax ([2]; brain, 2.65 mg/kg I.P.) was 30 min, the Cmax ([2]; brain, 26.5 mg/kg I.P.) was 4230 ng/g and the Tmax ([2]; brain, 26.5 mg/kg I.P.) was 60 min. For the same compound, the AUC(0-inf) ([2]; plasma, 2.65 mg/kg I.P.) was 1440 ng·h/mL, the AUC(0-t) ([2]; plasma, 2.65 mg/kg I.P.) was 1410 ng·h/mL and the Cmax ([2]; plasma, 2.65 mg/kg I.P.) was 978 ng/mL. For the same compound, the Tmax ([2]; plasma, 2.65 mg/kg I.P.) was 30 min, the AUC(0-inf) ([2]; plasma, 26.5 mg/kg I.P.) was 20800 ng·h/mL and the AUC(0-t) ([2]; plasma, 26.5 mg/kg I.P.) was 20700 ng·h/mL. For the same compound, the Cmax ([2]; plasma, 26.5 mg/kg I.P.) was 9580 ng/mL, the Tmax ([2]; plasma, 26.5 mg/kg I.P.) was 60 min and the viability at 24 h [3] was > 90%. The “concentration significantly reducing LPS-induced TNF-α” value (RAW 264.7 cells) was ≥ 30 µM, the “concentration significantly reducing LPS-induced nitrite” value (RAW 264.7 cells) was ≥ 10 µM and the IMG cell viability (IMG cells; 100 μM, without LPS, vs vehicle control, MTS) was “reduced”. The “concentration significantly reducing LPS-induced TNF-α” value (IMG cells; IMG, LPS 10 ng/mL, p < 0.001) was ≥ 10 µM, the “concentration significantly reducing LPS-induced nitrite” value (IMG cells; IMG, LPS 10 ng/mL, p < 0.05) was ≥ 30 µM and the viability at 24 h [4] was > 90%. For the same compound, the “ex vivo stability in human plasma” value [5] was “stable”.
